“And” between values parts separate entries of the source, which are not always exact repeats. Identical values can stand only once. “Also recorded” adds a separate entry of the source.

The test system of one data set is RD cells. Nature of the data set: Toxicity assay in RD cells (CCK-8). The class given is cell-based. The settings on record: RD cells, 24 h. The protocol:
(§1) (1) Different cells were plated in a 96-well plate at 100 μL per well.
(§2) (2) When the cells grew to a confluence of 70%-80%, the DMEM medium containing 10% serum was replaced with a DMEM medium containing 2% serum, and a certain concentration gradient of polypeptide RQ was added, so that the final concentrations of the polypeptide in the wells were 0.073242 μM, 0.146484 μM, 0.292969 μM, 0.585938 μM, 1.171875 μM, 2.34375 μM, 4.6875 μM, 9.375 μM, 18.75 μM, 37.5 μM, 75 μM, 150 μM, and 300 μM, respectively.
(§3) (3) The samples were collected 24 h after the addition of the polypeptide, and then 10 μL of live cell detection reagent CCK-8 was added to each well and mixed well.
(§4) (4) The plate was placed at 37° C. for 2 h.
(§5) (5) The absorbance value at OD450 was detected by a microplate reader.
(§6) (1) RD cells were plated in a 96-well plate at 100 μL per well.
(§7) (2) When the cells grew to a confluence of 70%-80%, the DMEM medium containing 10% serum was replaced with a DMEM medium containing 2% serum, and B-RQ was added so that the final concentrations in the wells were 0.46 μM, 2.34 μM, 4.68 μM, 9.37 μM, 18.75 μM, 37.5 μM, 75 μM, and 150 μM.

The nature of data set [1]: Toxicity assay in RD cells (CCK-8). The class given is cell-based. The note with it: human. The protocol: as §1, §2, §3, §4, §5, §6, §7
For another data set, the system named is CVB3. Nature of the data set: Inhibition of CVB3 in RD cells (viral RNA, qRT-PCR). The settings on record: inhibiting CVB3 in RD cells. Format: cell-based. The protocol: (§8) (1) RD cells were plated in a 24-well plate.
(2) When the cells grew to a confluence of 70%-80%, the DMEM medium containing 10% serum was replaced with a DMEM medium containing 2% serum (the DMEM medium containing 2% serum was added in each well at an amount of 0.5 mL), and 5 μL of CVB3 virus of 1×10^6 PFU/mL was added to each well.
(§9) (3) After 1 h, the polypeptides with final concentrations of 0.3125 μM, 0.625 μM, 1.25 μM, 2.5 μM, and 5 μM were added respectively. The group without polypeptide added was used as a control.
(4) The samples were collected 24 h after the infection of CVB3 virus, and RNA was extracted with the total RNA extraction kit.
(§10) (5) The supernatant was discarded, then 350 μL of TRK lysate was added to each well, and the plate was put on a shaker for 5 min.
(§11) (6) 350 μL of 70% ethanol (DEPC) was added to each well, and then the plate was put on a shaker for 5 min.
(§12) (7) The solution in each well was transferred to a RNA extraction column for 1 min of centrifugation at 12000 g.
(§13) (8) The solution obtained in the recovery tube was reloaded on the column again for 1 min of centrifugation at 12000 g.
(§14) (9) RNA washing buffer 1 was added in the column for 30 s of centrifugation at 12000 g. […]
(§15) (14) 2 μL of RNA sample was subjected to a fluorescence quantitative experiment using the one step qRT-PCR kit. […]

In a further data set the test system is Echo 11. Kind of data set: Inhibition of Echo 11 in RD cells (viral RNA, qRT-PCR). The settings on record: inhibiting Echo 11 in RD cells. The class given is cell-based. The protocol:
as §8
(2) When the cells grew to a confluence of 70%-80%, the DMEM medium containing 10% serum was replaced with a DMEM medium containing 2% serum (the DMEM medium containing 2% serum was added in each well at an amount of 0.5 mL), and 5 μL of Echo 11 virus of 1×10^6 PFU/mL was added to each well.
as §9
(4) The samples were collected 24 h after the infection of Echo 11 virus, and RNA was extracted with the total RNA extraction kit.
as §10, §11, §12, §13, §14, §15

For data set [2], the system named is cell-penetrating peptide YGRKKRRQRRR (TAT).

Consider `CC(C)C[C@H](NC(=O)[C@H](C)NC(=O)[C@H](CCC(=O)O)NC(=O)[C@H](CC(C)C)NC(=O)[C@@H](NC(=O)[C@H](C)NC(=O)CNC(=O)[C@@H](NC(=O)[C@H](CO)NC(=O)[C@H](Cc1c[nH]cn1)NC(=O)[C@H](CCCNC(=N)N)NC(=O)[C@H](Cc1c[nH]cn1)NC(=O)[C@H](CC(N)=O)NC(=O)[C@H](Cc1ccc(O)cc1)NC(=O)[C@H](CCC(=O)O)NC(=O)[C@H](CCCNC(=N)N)NC(=O)CNC(=O)[C@H](CO)NC(=O)CNC(=O)[C@H](CCCNC(=N)N)NC(=O)[C@H](CCCNC(=N)N)NC(=O)[C@H](CCCNC(=N)N)NC(=O)[C@H](CCC(N)=O)NC(=O)[C@H](CCCNC(=N)N)NC(=O)[C@H](CCCNC(=N)N)NC(=O)[C@H](CCCCN)NC(=O)[C@H](CCCCN)NC(=O)[C@H](CCCNC(=N)N)NC(=O)CNC(=O)[C@@H](N)Cc1ccc(O)cc1)C(C)C)[C@@H](C)O)C(=O)N[C@@H](Cc1ccccc1)C(=O)N[C@@H](CCC(N)=O)C(=O)O` [B-RQ], for which the “Cell viability (%)” value in the data set on RD cells (B-RQ 0.46875 μM) is 99.47% and 98.27%; in the data set on RD cells (B-RQ 2.34375 μM) it was 97.93% and 97.19%; in the data set with RD cells (B-RQ 4.6875 μM), 100.7775% and 96.97%; in the data set with RD cells (B-RQ 9.375 μM), 96.62% and 96.17%; with RD cells (B-RQ 18.75 μM), 97.36%; in the data set with RD cells (B-RQ 37.5 μM), 99.64% and 99.24%. Moreover, the “Cell viability (%)” value in the data set with RD cells (B-RQ 75 μM) was 95.66%; in the data set on RD cells (B-RQ 150 μM), 95.94% and 95.32%. The viability at 24 h, 0.46875 µM in data set [1] (RD cells, B-RQ 0.46875 μM, 24 h, read-out: Cell viability (%)) turned out to be 99%. Besides, the viability at 24 h, 2.34375 µM in data set [1] (RD cells, B-RQ 2.34375 μM, 24 h, read-out: Cell viability (%)) came out at 99.1%. Further, the viability at 24 h, 4.6875 µM in data set [1] (RD cells, B-RQ 4.6875 μM, 24 h, read-out: Cell viability (%)) was found to be 98.7%. The viability at 24 h, 9.375 µM in data set [1] (RD cells, B-RQ 9.375 μM, 24 h, read-out: Cell viability (%)) was 99.3%. Besides, in data set [1] (RD cells, B-RQ 18.75 μM, 24 h, read-out: Cell viability (%)), the viability at 24 h, 18.75 µM was 97.8%. In addition, the viability at 24 h, 37.5 µM in data set [1] (RD cells, B-RQ 37.5 μM, 24 h, read-out: Cell viability (%)) is 99.4%. Also, the viability at 24 h, 75 µM in data set [1] (RD cells, B-RQ 75 μM, 24 h, read-out: Cell viability (%)) was found to be 96%. The viability at 24 h, 150 µM in data set [1] (RD cells, B-RQ 150 μM, 24 h, read-out: Cell viability (%)) was 95.5%. The compound also showed a CC50 at 24 h in data set [1] (Table 1 (RD cells)) of over 75 µM. Also, the IC50 with CVB3 is 2.29 µM; in the data set on Echo 11, 0.38 µM.
For MBP-EV71 2C protein, the “helicase activity (unwinding of HEX-labeled dsRNA substrate, gel electrophoresis)” value with polypeptide RQ is given as “the addition of RQ inhibited the helicase activity of 2C (lane 5); also recorded: RQ inhibited the helicase activity of EV71 2C in a dose-dependent manner”; in data set [2], “the control TAT did not affect the helicase activity of 2C (lane 4)”.

The values are drawn from patent US20250263436A1, “BROAD-SPECTRUM ANTIVIRAL DRUG FOR ENTEROVIRUS, AND APPLICATION” (WUHAN INSTITUTE OF VIROLOGY, CHINESE ACADEMY OF SCIENCES, priority 2020, published 2025).
